In paper PMC6522964 (Journal of Enzyme Inhibition and Medicinal Chemistry, 2019):
Like-named read-outs stand apart in the source and are kept apart here.

Columns and labels:
tyrosinase [1] = molecular target: T1, tyrosinase (Agaricus bisporus, UniProt C7FF04); type: biochemical, mushroom; details: increasing CuCl2 0-240 μM; diphenolase activity
T1 construct: purchased Sigma-Aldrich (St. Louis, MO, USA)
Procedure: To investigate whether the binding of copper ions with the inhibitor takes place at the active site of tyrosinase, the assay was carried out according to the method by Ismaya with some modifications.[17] Stock solutions of each KADs (10 mM) were prepared in DMSO. Then, 0.33 mM solutions were prepared in a cuvette containing phosphate buffer (10 mM, pH 7.4), and treated with different concentrations of CuCl2 (0, 60, 120, 180 or 240 µM). After 10 min of incubation period at room temperature, absorbance was scanned from 240 to 600 nm. Moreover, the relative activity of tyrosinase was determined by adding 0.1 ml various concentrations of CuCl2–KADs complexes from the previous step. The reaction system and the method were the same as the determination of diphenolase activity.

mushroom tyrosinase [2] = molecular target: T2, mushroom tyrosinase (Agaricus bisporus, UniProt C7FF04); experiment: Diphenolase activity of mushroom tyrosinase (L-DOPA as substrate), Lineweaver-Burk kinetics; type: biochemical; details: for Inhibition Type / Inhibition Mechanism: diphenolase; for Inhibition Type: Lineweaver-Burk plots; for Inhibition Mechanism: enzyme activity vs enzyme concentration plots; for Inhibition constant KIS: enzyme-substrate complex, plot of vertical intercepts vs inhibitor concentration; for Ki: free enzyme, plot of slopes vs inhibitor concentration, read-out: Inhibition constant KI
T2 construct: purchased Sigma-Aldrich (St. Louis, MO, USA)
Procedure: (§1) The reaction system (3 ml) contained 1 mM L-Tyr or 0.5 mM L-DOPA and enzyme in 50 mM Na2HPO4–NaH2PO4 buffer (pH 6.8) and different concentrations of KADs. The KADs were dissolved in DMSO and diluted to appropriate concentration, such that the final concentration of DMSO is maintained at 3.3%. […] The enzyme activity was evaluated by increasing the absorbance at 475 nm accompanying the oxidation of the substrates with a molar absorption coefficient of 3700 (M^−1 cm^−1). […] The reaction was carried out at 37 °C. A Thermo […] GO spectrophotometer was used for absorbance and kinetic measure.

mushroom tyrosinase [3] = molecular target: T2, mushroom tyrosinase; details: L-Tyr substrate, read-out: IC50 Monophenolase; cited from earlier work
mushroom tyrosinase [4] = molecular target: T2, mushroom tyrosinase; details: L-DOPA substrate, read-out: IC50 Diphenolase; cited from earlier work
mushroom tyrosinase [5] = molecular target: T2, mushroom tyrosinase; experiment: Monophenolase activity of mushroom tyrosinase (L-Tyr as substrate); type: biochemical; details: maximum concentration 20 μM
Procedure: as §1

[6] = DPPH free-radical scavenging assay
Procedure: (§2) The antioxidant capacities of compounds usually analysed through DPPH and ABTS^+ free-radical scavenging assays. The DPPH free-radical scavenging was conducted according to the procedure described by Chen.[18] Stock solution (0.2 mM DPPH) was prepared in 95% methyl alcohol and diluted to with OD value of 1.1 ± 0.05 at 517 nm for analysis. Briefly, 0.1 ml of compounds dissolved in DMSO at different concentrations (50, 200, 400 and 800 μg/ml) were added to DPPH with a methyl alcohol solution (0.2 mM, 2.9 ml). The mixture was shaken gently and absorbance was read at 517 nm every 5 min, a total of 30 min. The ABTS^+ free-radical scavenging activity assay was performed as described by Ai[9] with slight modification. 7 mM ABTS^+ and 2.45 mM K2S2O8 were dissolved in 10 mM sodium phosphate buffer and then placed at dark room for 16 h to obtain ABTS^+ stock solution. […] After 6 min of incubation period at room temperature, absorbance was read at 714 nm. The scavenging capacity of the antioxidant for the free-radical was calculated according to the following equation: Radical scavenging effect (%) = (1 − A1/A0) × 100% where A0 is the absorbance of blank control and A1 is the absorbance in the presence of sample. Data are represented from three independent experiments, and the mean values were calculated. […]

[7] = ABTS+ free-radical scavenging assay
Procedure: as §2

B16F10 cell = details: cited from earlier work
tyrosinase [8] = molecular target: T1, tyrosinase; experiment: Intrinsic fluorescence quenching of tyrosinase (Stern-Volmer); type: binding, mushroom
Procedure: Fluorescence spectra were determined as previously reported by Zhu.[12] Cary Eclipse fluorescence spectrophotometer was used to record the fluorescence intensities at an excitation wavelength of 280 nm, and emission and excitation slit widths were 10 nm and 5 nm, respectively. At wavelengths of 300–450 nm, fluorescence emission spectra were recorded. In this assay, 10 μL of KADs of different concentrations were incorporated with 2 ml tyrosinase solution (0.2 mg/ml).
The fluorescence quenching data expressed as the fluorescence intensity against KADs concentration. Fluorescence quenching was calculated using the Stern–Volmer equation: F0/F = 1 + KSV[Q] Where F0 is the fluorescence intensities of tyrosinase, F is the fluorescence intensities after addition of the quencher, [Q] is the concentration of the quencher and KSV is the Stern–Volmer quenching constant. For the calculation of biomolecular quenching constants, the data were plotted as F0/F against [Q], with the biomolecular quenching constants calculated by linear regression.
There are two known fluorescence quenching mechanisms: static quenching is caused by complex formation while dynamic quenching is caused by collisional processes.[13] For the static quenching, the KSV value must be larger than 100 M^−1 and the apparent binding constant (KA) and the binding sites (n) were estimated by plots of log[(F0−F)/F] versus log[Q] using the following equation:[14] log ((F0 − F)/F) = logKA + nlog [Q]

T2 sequence (C7FF04 1-392): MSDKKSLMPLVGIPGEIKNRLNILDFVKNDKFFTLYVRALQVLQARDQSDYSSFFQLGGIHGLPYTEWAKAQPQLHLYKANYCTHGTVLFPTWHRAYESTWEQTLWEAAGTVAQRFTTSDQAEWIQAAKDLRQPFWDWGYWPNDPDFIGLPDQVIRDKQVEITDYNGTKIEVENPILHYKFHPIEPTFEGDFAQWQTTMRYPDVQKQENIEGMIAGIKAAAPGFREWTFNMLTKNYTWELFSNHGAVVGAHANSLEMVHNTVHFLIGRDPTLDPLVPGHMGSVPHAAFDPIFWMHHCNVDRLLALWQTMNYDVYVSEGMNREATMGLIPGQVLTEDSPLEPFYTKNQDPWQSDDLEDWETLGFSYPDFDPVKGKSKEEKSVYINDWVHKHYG
T1 sequence (C7FF04 1-392): as above

N[C@@H](Cc1ccc(O)c(O)c1)C(=O)O [DOPA, 3,4-dihydroxyphenylalanine, reference compound]
Change of relative tyrosinase activity after treatment with Cu2+ (tyrosinase [1]): almost no changes

COc1ccccc1C=CC=NNc1nnc(SCc2cc(=O)c(O)co2)n1N [KAD2]
Change of relative tyrosinase activity after treatment with Cu2+ (tyrosinase [1]): 2 times | Inhibition Type (mushroom tyrosinase [2]): Mixed | Inhibition Mechanism (mushroom tyrosinase [2]): Reversible | Inhibition constant KIS (mushroom tyrosinase [2]): 9.18 µM | Ki (mushroom tyrosinase [2]): 6.3 µM | IC50 (mushroom tyrosinase [3]): 20.5 µM | IC50 (mushroom tyrosinase [4]): 7.5 ± 0.13 µM | Lag time of monophenolase activity (mushroom tyrosinase [5]): 6.7 min | Steady-state activity of monophenolase decreased to (mushroom tyrosinase [5]; remaining activity): 48.29% | IC50 of DPPH [6]: 227.80 µg/mL | IC50 of ABTS+ [7]: 126.63 µg/mL | Inhibition of melanogenesis (B16F10 cell): effectively inhibit melanogenesis | KA (apparent binding constant) (tyrosinase [8]; λex 280 nm): 141000 M⁻¹ | KSV (Stern-Volmer quenching constant) (tyrosinase [8]; λex 280 nm): 57000 M⁻¹ | Type of quenching (tyrosinase [8]; λex 280 nm): Static | n (binding sites) (tyrosinase [8]; λex 280 nm): 1.0394

Nn1c(N/N=C/C=C/c2ccccc2)nnc1SCc1cc(=O)c(O)co1 [KAD1]
Change of relative tyrosinase activity after treatment with Cu2+ (tyrosinase [1]): 1.5 times | Inhibition Type (mushroom tyrosinase [2]): Mixed | Inhibition Mechanism (mushroom tyrosinase [2]): Reversible | Inhibition constant KIS (mushroom tyrosinase [2]): 45.50 µM | Ki (mushroom tyrosinase [2]): 4.95 µM | IC50 (mushroom tyrosinase [3]): 21.6 µM | IC50 (mushroom tyrosinase [4]): 8.33 ± 0.22 µM | Kd (tyrosinase [8]): 34.8 µM | KSV (Stern-Volmer quenching constant) (tyrosinase [8]; λex 280 nm): 58400 M⁻¹ | Type of quenching (tyrosinase [8]; λex 280 nm): Static | n (binding sites) (tyrosinase [8]; λex 280 nm): 0.9394
